ChEMBL document CHEMBL3507680, “University of Dundee, Gates Library screen for HepG2 cell viability”

Test: Human HepG2 cell viability assay in 384 well format
Format: toxicity, cell-based
Set-up: dose 125 nL, time 70.5 hour; concentration not given beside the values
Conditions: HepG2 cells, read-out: Inhibition

| Structure (SMILES) | cytotoxicity at 70.5 h |
| --- | --- |
| Cc1c(C2CCCN(C(=O)Cc3ccccn3)C2)n2c(nc1=O)CCC2 (configuration not stated) | 0.807% |
| O=C(NCCNc1ncccn1)C1CCN(C(=O)C2CC2)CC1 | -13% |
| Cc1[nH]ncc1C(=O)N1CCCC(n2cncn2)C1 (configuration not stated) | -1.06% |
| CC(C)CNC(=O)[C@H]1CCS(=O)(=O)[C@@H]2CN(Cc3ccc(F)cc3)C[C@H]12 | -10.2% |
| Cc1ccc(-c2cc(C(=O)NCC3CCOC3)n[nH]2)s1 (configuration not stated) | 20.2% |
| CCOC(=O)c1sc2ccsc2c1CNC(=O)C(C)(C)C#N | -2.32% |
| O=c1[nH]c2c(c(=O)n1C1CCCCC1)CCC2Nc1ccccc1 (configuration not stated) | 6.54% |
| O=C(N[C@H]1COC[C@@H]1N1CCCC1)c1csc(-c2cccs2)n1 | -10.9% |
| COCCNC(=O)Nc1ccc(-n2cncn2)c(F)c1 | 40.1% |
| CCn1ncnc1C(NC(=O)CC1CCN(C(C)C)CC1)C1CC1 (configuration not stated) | 13.7% |
| CC(C)N1CC(C(=O)NCCc2csc(-c3ccncc3)n2)CC1=O (configuration not stated) | 34.8% |
| Fc1cccc(F)c1Cn1c(C2CCCNC2)cc2cccnc21 (configuration not stated) | -5.53% |
| O=C(Cc1ccccc1)N1CCOC(c2nc(-c3ncccn3)no2)C1 (configuration not stated) | -4.21% |
| COc1ncccc1NC(=O)NC(C)(C)c1ncc(C)s1 | 16.5% |
| Cc1noc(C(C)N2CCC(c3nc4ccccc4[nH]3)CC2)n1 (configuration not stated) | -3.97% |
| COCC1CN(Cc2ccccn2)Cc2cn(C)nc21 (configuration not stated) | -4.86% |
| Cc1cccc(CN2CCC(C3Nc4ccccc4S(=O)(=O)N3)CC2)n1 (configuration not stated) | -2.6% |
| c1cnc2[nH]nc(C3CCN(Cc4ccsc4)CC3)c2c1 | -4.44% |
| O=C1CC2(CCN(Cc3ccsc3)C2)CN1c1ccc2c(c1)OCO2 (configuration not stated) | 10.9% |
| Cc1cc(C(=O)N2CCC(c3nnc(Cn4ccnc4)n3C)CC2)cs1 | -9.51% |
| O=C(NCC1CC1)c1ccc(NC(=O)c2ccco2)cc1 | -5.31% |
| Cn1c(=O)[nH]c(=O)c2cc(C(=O)N3CCCC3C3CCCC3)cnc21 (configuration not stated) | 22.8% |
| CN(C)C(=O)c1cccc(CNc2ccc(C#N)cn2)c1 | 5.12% |

| Structure (SMILES) | cytotoxicity at 70.5 h |
| --- | --- |
| CC(NC(=O)c1ccc(Cl)cc1)c1nnc(SCC(N)=O)n1C (configuration not stated) | -8% |
| Cc1cc(C)n(CC2CN(Cc3nnsc3Cl)CCO2)n1 (configuration not stated) | -13% |
| CC(C)NC(=O)N1C[C@H]2C[C@H](C(=O)NCc3ccccc3)[C@@H](C1)O2 | -5.16% |
| O=C(CCC1CCCC1)N1CCC(c2ncc3c(n2)CCNC3)CC1 | 11.5% |
| Cc1noc(C(C)C)c1C(=O)N1CCOCC1CC(=O)c1ccco1 (configuration not stated) | -5.66% |
| O=S1(=O)C[C@@H]2[C@H](C1)N(Cc1ncc[nH]1)CCN2Cc1cccnc1 | -3.77% |
| Cc1cccc2c1N(C)C(=O)C21CC(=O)Nc2c1cnn2C(C)(C)C (configuration not stated) | -18.4% |
| COCCCN(Cc1ccncc1)C(=O)C1COc2ccccc2C1 (configuration not stated) | -14.9% |
| Cc1ccc(C)c2c1NC(=O)C2CC(=O)O (configuration not stated) | 2.65% |
| NC(=O)C1CN(C(=O)Nc2ccccc2-c2cccs2)CCO1 (configuration not stated) | -1.53% |
| CN(C)Cc1nc(C(C)(C)NC(=O)c2nc3ccccc3s2)no1 | -7.47% |
| O=C(Nc1cnc2n1CCCC2)c1cccc(NC(=O)C2CCCC2)c1 | -8.35% |
| CCOc1ccc2[nH]c(=O)c(CN3CCCCC3C)cc2c1 (configuration not stated) | -3.42% |
| Cc1nn(C)c2c(=O)n(Cc3ccccc3)nnc12 | -13.5% |
| CNc1ncc(CN(C)Cc2cc(O)c3cccc(Cl)c3n2)cn1 | -15.2% |
| CC(CN1CCCCCC1)NCc1cc(-c2ccco2)on1 (configuration not stated) | -12.2% |
| COCCCS(=O)(=O)N1CCN(C(C)(C)CO)CC1 | -7.76% |
| Cc1ccc2cc(C(=O)NCCn3nc4ccccn4c3=O)[nH]c2c1 | 8.99% |
| COC(C(=O)NC1CCN(S(C)(=O)=O)CC1)c1ccccc1 (configuration not stated) | 15.6% |
| Cn1ncc2c(NCCCOc3cccnc3)nc(C3CCCC3)nc21 | 16.2% |
| Cc1cc(CN2C[C@@H](C)[C@@]3(CCN(CC(=O)N(C)C)C3=O)C2)oc1C | -4.41% |
| Cc1cnc(C)c(N2CCC3(CCCN(C4CCOCC4)C3=O)C2)n1 (configuration not stated) | -8.78% |
| Cc1noc(C)c1-c1nc(C2CCCN(CCC(N)=O)C2)ccc1CO (configuration not stated) | -6.81% |

| Structure (SMILES) | cytotoxicity at 70.5 h |
| --- | --- |
| O=C(c1cccnc1)N1CCN(c2ccc(-n3cccc3)nn2)CC1 | 0.575% |
| CC(=O)c1cc(CN2C[C@@H](NS(=O)(=O)N(C)C)[C@H](C(C)C)C2)cs1 | 7.82% |
| CC(C)N1[C@@H](C(=O)NCCN(C)C)C[C@H]2CN(c3ncccn3)C[C@H]21 | -2.96% |
| CSC(C)(C)CNC(=O)NCc1cccc(-n2cncn2)c1 | -0.656% |
| COc1ccc(C(=O)NCCCn2ccnc2)c(OC)n1 | 39.9% |
| CCC(NC1CSCCSC1)c1ccc(S(C)(=O)=O)cc1 (configuration not stated) | -14.2% |
| CC(C(=O)NCc1ccnc(N2CCCC2)c1)n1cncn1 (configuration not stated) | -1.47% |
| Cn1ncc2c(N3CC(N4CCCCC4)C3)nc(-c3ccncc3)nc21 | -12.9% |
| COC(=O)C(C)CN(Cc1ccccc1)C(=O)CN1CCCNC1=O (configuration not stated) | -0.248% |
| COC[C@H]1CC[C@@H]2[C@@H](CCN2Cc2ccco2)O1 | 20.4% |
| COc1cccc(OCC(=O)N2CCCSCC2CN2CCOCC2)c1 (configuration not stated) | 14.1% |
| Cc1ccccc1CCNC(=O)N1CCCC(c2nncn2C)C1 (configuration not stated) | -9.14% |
| CC(C)COC(=O)N1CCCN(Cc2nnc(C(C)(C)C)o2)CC1 | -4.02% |
| CCOCCN1CCN(C(C)C(=O)Nc2ccnn2C(C)C)CC1 (configuration not stated) | -3.46% |
| COc1ccc(-c2cc(C3CCCCCN3S(=O)(=O)N(C)C)on2)cc1 (configuration not stated) | 8.12% |
| O=C(COCC1CC1)Nc1ncccc1O | -6.89% |
| Cc1nc(CNC(=O)NCC(O)c2ccc(F)cc2F)cs1 (configuration not stated) | -12% |
| O=C(CCNC(=O)NC1CCN(C2CC2)CC1)NCc1ccccc1 | -3.29% |
| CC(CC(=O)NCCNS(C)(=O)=O)C1CCCCC1 (configuration not stated) | -13.2% |
| CCC(=O)Nc1cccc(OCC(=O)N[C@@H]2C[C@H]3CC[C@@H]2C3)c1 | -22.4% |
| O=C(c1ccc(Br)o1)N1CCN(Cc2ccc(OC(F)(F)F)cc2)CC1 | -2.19% |
| CCn1c(SC)nnc1C1CCN(C(=O)N2CCCC2)CC1 | -4.95% |
| O=C(c1cscn1)N1CCC2(CN(Cc3ccncc3)C2)C1 | -9.93% |

| Structure (SMILES) | cytotoxicity at 70.5 h |
| --- | --- |
| CC1=C(CCN2CC[C@@H](N3CCC(O)CC3)[C@H](O)C2)C(C)(C)CCC1 | -5.02% |
| O=C(c1ccc(=O)[nH]n1)N1CCCC1C1CCCC1 (configuration not stated) | -0.243% |
| CSCC[C@H](NC(C)=O)c1nc(Cc2ccccc2)n[nH]1 | 6.58% |
| COc1nn(C)c2c1CCCN(C(=O)c1ccsc1)C2 | -108% |
| Cc1nc2n(n1)CC(NCc1ccccc1OCC(=O)N(C)C)CC2 (configuration not stated) | -3.73% |
| O=C(c1cc(COc2ccc3c(c2)OCO3)[nH]n1)N1CCOCC1 | 9.33% |
| COc1ccc(C(=O)Nc2ccccc2-c2ccc(=O)n(C)n2)cc1 | 3.05% |
| CC(C)SCCNC(=O)c1cccc2ccnn12 | -9.35% |
| CCOCc1ncn2c1CN(S(=O)(=O)c1ccc(F)cc1)CC2 | 9.27% |
| Cc1cccc(OC(C)C(=O)NCC2(N(C)C)CCCC2)c1 (configuration not stated) | -8.19% |
| CN1CCCN(C(=O)c2ccnn2-c2ccc3ccccn23)CC1 | 12.9% |
| COc1cccc2c1N(CC(=O)Nc1ccc(Cl)cn1)CCC2 | 0.717% |
| COc1cccc(-c2noc(-c3ccc(N4CC(N)C4)nc3)n2)c1OC | -0.582% |
| FC(F)(F)c1cc(C2CCCN(c3ncccn3)C2)n2ccnc2n1 (configuration not stated) | -2.5% |
| Cc1nccn1-c1cc(CNC(=O)C2CCCO2)ccn1 (configuration not stated) | -7.47% |
| Cc1ccc(C(=O)N2CCN(Cc3cccs3)CC2)n1C | -14.9% |
| COCCCC(=O)N1CC(=O)Nc2cc(Br)ccc21 | -3.54% |
| CNC(=O)C1(c2cnccn2)CCCN1C(=O)c1cccc(F)c1 (configuration not stated) | 20.4% |
| CCCc1nc(N2CCC(CCO)CC2)c2cnn(C)c2n1 | -2.39% |
| CC(C)CN1C[C@@H](C(=O)O)C[C@@H](C(=O)NCc2ccncc2)C1 | -2.12% |
| CC(CNC(=O)c1ccc(=O)[nH]n1)N1CCc2ccccc21 (configuration not stated) | 2.77% |
| Cc1sc(CN)nc1-c1ccc(Cl)cc1 | 4.14% |
| CN(C)C[C@H]1C[C@@H](CO)CN(C(=O)CCc2nc(Cl)n[nH]2)C1 | 4.5% |

| Structure (SMILES) | cytotoxicity at 70.5 h |
| --- | --- |
| Cc1cccc(-c2noc(CN3CCC(c4ccn[nH]4)CC3)n2)c1 | -1.2% |
| CC(C)C(NC(N)=O)C(=O)N1CCN(c2ccccc2Cl)C(=O)C1 (configuration not stated) | -9.59% |
| COc1ccc(-c2ccc(C(=O)N3CCC[C@@H]3CO)o2)cc1 | -13.9% |
| O=C(NCCSC1CCCC1)c1c(F)cccc1F | -6.07% |
| Cc1ccc2c(c1)CN(C(=O)c1ccccc1F)C(CN(C)C)CO2 (configuration not stated) | -24.7% |
| COCC(=O)N1CCc2ccccc2C12CCNCC2 | 18.5% |
| CCc1nc(CC2CN(c3ncnc4sc(C)c(C)c34)CCO2)no1 (configuration not stated) | -19.7% |
| CCN1CCC(=O)N(C)Cc2cc(F)ccc21 | -8.5% |
| O=C(Nc1ccccc1-c1cccs1)N1CCOCC1 | -13.2% |
| O=C(O)c1ccn(-c2ccccc2NS(=O)(=O)c2cccc(F)c2)n1 | 7.58% |
| CN1CCC2(CC1)CN(CC1CC1)CC21CCNC1=O (configuration not stated) | -6.91% |
| Cc1ccc(N2CCCC(NCCCS(C)(=O)=O)C2)nn1 (configuration not stated) | -7.73% |
| Cc1ccc(C(=O)NS(=O)(=O)c2cc(F)ccc2F)c(=O)[nH]1 | -13.1% |
| Cc1ccc(OC2(C(=O)O)CCN(C(=O)c3cc(C)oc3C)CC2)cn1 | 4.69% |
| COCC(C)(CCO)NC(=O)Nc1c(F)cccc1Br (configuration not stated) | 1.51% |
| COCCn1ccnc1C1CCN(c2cccc(C(=O)O)n2)CC1 | -3.81% |
| O=C(Nc1ccc2c(c1)OC1(CCCCC1)O2)c1ccc(=O)[nH]n1 | 0.889% |
| CN(Cc1ncc[nH]1)CC1CCOc2ccccc2C1 (configuration not stated) | 2.48% |
| CCc1cc(C(=O)N2CCCn3nc(CCC(=O)O)cc3C2)cs1 | -8.44% |
| CC(C)c1ccc(S(=O)(=O)NC2(CC(N)=O)CCC2)cc1 | 2.8% |
